The text below walks through data of US20020169175A1, “Pharmaceutically acceptable salts of heterocyclic compounds” (DR. REDDY'S LABORATORIES LTD., priority 2001, published 2002).

The test system of experiment [1] is C57BL/KsJ-db/db mice. Kind of experiment: Efficacy in genetic models: blood sugar lowering in db/db mice. Type of experiment: in vivo, mouse. Particulars: 0.1 mg/kg oral gavage daily for 6 days. The source says:
a) Efficacy in Genetic Models
Mutation in colonies of laboratory animals and different sensitivities to dietary regimens have made the development of animal models with non-insulin dependent diabetes and hyperlipidemia associated with obesity and insulin resistance possible. Genetic models such as db/db and ob/ob (Diabetes, (1982) 31(1): 1-6) mice and zucker fa/fa rats have been developed by the various laboratories for understanding the pathophysiology of disease and testing the efficacy of new antidiabetic compounds (Diabetes, (1983) 32: 830-838; Annu. Rep. Sankyo Res. Lab. (1994). 46: 1-57). […]
The random blood sugar and triglyceride levels were measured by collecting blood (100 μl) through orbital sinus, using heparinised capillary in tubes containing EDTA which was centrifuged to obtain plasma. The plasma glucose and triglyceride levels were measured spectrometrically, by glucose oxidase and glycerol-3-PO4 oxidase/peroxidase enzyme (Dr. Reddy's Lab. Diagnostic Division Kits, Hyderabad, India) methods respectively.
The blood sugar and triglycerides lowering activities of the test compound was calculated according to the formula.
(§1) 1. Percent reduction in Blood sugar/triglycerides/total cholesterol were calculated according to the formula: [formula]

Experiment [2] has as its target T1, hPPARγ1 (Homo sapiens, UniProt P37231).
T1 construct: expressed in transfected cells; host or cells: HEK-293
T1 sequence (P37231 238-503 limits assumed): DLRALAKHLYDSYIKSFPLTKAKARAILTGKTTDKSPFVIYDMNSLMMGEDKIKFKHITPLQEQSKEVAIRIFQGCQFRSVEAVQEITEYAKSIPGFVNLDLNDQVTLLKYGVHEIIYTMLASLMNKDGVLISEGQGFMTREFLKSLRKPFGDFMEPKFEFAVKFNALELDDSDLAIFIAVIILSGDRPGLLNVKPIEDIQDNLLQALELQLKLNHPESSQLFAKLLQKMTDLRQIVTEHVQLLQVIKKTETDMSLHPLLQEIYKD
Kind of experiment: Determination of hPPARγ activity (GAL4 fusion luciferase reporter in transfected HEK-293 cells). As to conditions: compound concentration 1 μM. The format is cell-based. As to the method: b) Determination of hPPARγ Activity
Ligand binding domain of hPPARγ1 was fused to DNA binding domain of Yeast transcription factor GAL4 in eucaryotic expression vector. Using lipofectamine (Gibco BRL, USA) as transfecting reagent HEK-293 cells were transfected with this plasmid and a reporter plasmid harboring the luciferase gene driven by a GAL4 specific promoter. Compound was added at 1 μM concentration after 48 hrs of transfection and incubated overnight. Luciferase activity as a function of drug binding/activation capacity of PPARγ1 was measured using Packard Luclite kit (Packard, USA) in Packard Top Count (Ivan Sadowski, Brendan Bell, Peter Broag and Melvyn Hollis. Gene. 1992. 118: 137-141; Guide to Eukaryotic Transfections with Cationic Lipid Reagents. Life Technologies, GIBCO BRL, USA).
(Reporter assays use an easily measured gene product as a stand-in for the process of interest.)

In experiment [3] the test system is Swiss albino mice. The experiment is described as follows: Plasma triglyceride and total cholesterol lowering activity in Swiss albino mice and Guinea pigs. The format is in vivo, mouse. As to conditions: oral, 6 days. As to the method:
c) Plasma Triglyceride and Total Cholesterol Lowering Activity in Swiss Albino Mice and Guinea Pigs
Male Swiss albino mice (SAM) and male Guinea pigs were obtained from NIN and housed in DRF animal house. All these animals were maintained under 12 hour light and dark cycle at 25±1° C. Animals were given standard laboratory chow (NIN Hyderabad, India) and water, ad libitum. SAM of 20-25 g body weight range and Guinea pigs of 500-700 g body weight range were used (Oliver, P., Plancke, M. O., Marzin, D., Clavey, V., Sauzieres, J and Fruchart, J. C. Effects of fenofibrate, gemfibrozil and nicotinic acid on plasma lipoprotein levels in normal and hyperlipidemic mice. Atherosclerosis. 1988. 70: 107-114).
The test compounds were administered orally to Swiss albino mice at 0.3 to 30 mg/kg/day dose for 6 days. Control mice were treated with vehicle (0.25% Carboxymethylcellulose; dose 10 ml/kg). The test compounds were administered orally to Guinea pigs at 0.3 to 30 mg/kg/day dose for 6 days. Control animals were treated with vehicle (0.25% Carboxymethylcellulose; dose 5 ml/kg).
The blood samples were collected in fed state 1 hour after drug administration on 0 and 6 day of treatment. The blood was collected from the retro-orbital sinus through heparinised capillary in EDTA containing tubes. After centrifugation, plasma sample was separated for triglyceride and total cholesterol (Wieland, O. Methods of Enzymatic analysis. Bergermeyer, H. O., Ed., 1963. 211-214; Trinder, P. Ann. Clin. Biochem. 1969. 6: 24-27). Measurement of plasma triglyceride, total cholesterol and HDL were done using commercial kits (Dr. Reddy's Diagnostic Division, Hyderabad, India).
as §1

Experiment [4] deals with T2, hPPARα (Homo sapiens, UniProt Q07869).
T2 construct: expressed in transfected cells; host or cells: HEK-293
T2 sequence (Q07869 239-466 limits assumed): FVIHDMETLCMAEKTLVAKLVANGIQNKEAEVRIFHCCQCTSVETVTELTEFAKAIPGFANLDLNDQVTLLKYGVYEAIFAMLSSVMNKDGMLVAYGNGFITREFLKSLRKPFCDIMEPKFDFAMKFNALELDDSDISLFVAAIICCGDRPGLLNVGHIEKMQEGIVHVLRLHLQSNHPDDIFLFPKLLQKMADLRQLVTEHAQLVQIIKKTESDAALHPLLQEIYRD
The experiment is described as follows: Determination of hPPARα activity (GAL4 fusion luciferase reporter in transfected HEK-293 cells). The format is cell-based. Particulars: compound concentration 50 μM. As to the method: a) Determination of hPPARα Activity
Ligand binding domain of hPPARα was fused to DNA binding domain of Yeast transcription factor GAL4 in eucaryotic expression vector. Using superfect (Qiagen, Germany) as transfecting reagent HEK-293 cells were transfected with this plasmid and a reporter plasmid harboring the luciferase gene driven by a GAL4 specific promoter. Compound was added at different concentrations after 42 hrs of transfection and incubated overnight. Luciferase activity as a function of compound binding/activation capacity of PPARα was measured using Packard Luclite kit (Packard, USA) in Top Count (Ivan Sadowski, Brendan Bell, Peter Broag and Melvyn Hollis. Gene. 1992. 118: 137-141; Superfect Transfection Reagent Handbook. February 1997. Qiagen, Germany).

Each structure is given as a SMILES string. Counter-ions that a name gives are not always drawn.

Turning to `CCO[C@@H](Cc1ccc(OCCn2c(CC)nc3ccccc3c2=O)cc1)C(=O)O` [Example 11, (−)-3-[4-[2-(2-Ethyl-4-oxo-3,4-dihydroquinazolin-3-yl)ethoxy]phenyl]-2-ethoxypropanoic acid arginine salt], the “Reduction in Blood Glucose Level (%)” value in experiment [1] is reported as 61%. Also, the PPARγ in experiment [2] was determined as 27.0. Further, the “Triglyceride Lowering (%)” value in experiment [3] (dose 0.3 mg/kg) is reported as 58%. Further, in experiment [4], the PPARα is listed as 13.8.

As to `CCCc1nn(C)c2c(=O)n(CCOc3ccc(C[C@H](OCC)C(=O)O)cc3)c(CC)nc12` [Example 44, (−)-3-[4-[2-(1-Methyl-5-ethyl-7-oxo-3-propyl-6,7-dihydro-1H-pyrazolo[4,3-d]pyrimidin-6-yl)ethoxy]phenyl]-2-ethoxypropionic acid metformin salt], in experiment [3] (dose 3 mg/kg), the “Triglyceride Lowering (%)” value worked out at 80%. The PPARα in experiment [4] is on record as 2.5.
